This is an account of results in the Deep4Chem optical property database.

The nature of the data set: solvent given as SMILES.
The mark [1] stands for this setting: in c1ccc2c(c1)c1ccccc1n2-c1ccc(-c2ccc(-n3c4ccccc4c4ccccc43)cc2)cc1.

Take `N#Cc1ccc2[nH]ccc2c1`: the fluorescence lifetime by setting is: (in C1CCOC1) 4.4 ns; (in C1COCCO1) 4.2 ns; (in CC#N) 4.4 ns; (in CC(C)O) 4.6 ns; (in CCO) 4.3 ns; (in CO) 2.9 ns. Moreover, the fluorescence lifetime came to 7.1 ns (in CS(C)=O); 5.4 ns (in NC=O); 0.3 ns (in O); 0.1 ns (in OCC(F)(F)F); 0.4 ns (in [2H]O[2H]).

In turn, `Cn1c2ccccc2c2cc(/C=C/C3=[O+][B-](F)(F)OC(/C=C/c4ccc5c(c4)c4ccccc4n5C)=C3c3ccccc3)ccc21` had a fluorescence lifetime (in ClCCl) of 2.15 ns.

Molecule `Fc1c(F)c(-n2c3ccccc3c3ccccc32)c(F)c(-n2c3ccccc3c3ccccc32)c1-c1nnc(-c2ccccc2)o1` displayed a fluorescence lifetime (in Cc1ccccc1) of 4.8 ns.

In the case of `O=S1c2ccccc2-c2cc(-c3c4ccccc4cc4ccccc34)ccc21` (stereo not given), the fluorescence lifetime (in C1CCCCC1) turned out to be 2.4 ns, the fluorescence lifetime (in CC#N) worked out at 3.5 ns and the fluorescence lifetime (in ClCCl) was 3.3 ns.

Turning to `COc1ccc(-c2cc(-c3ccc(OC)cc3)c3c(N)nc(N4CCCC4)c(C#N)c3n2)cc1`, the fluorescence lifetime by setting is: (in CC#N) 11.6 ns; (in CC(C)=O) 10 ns; (in CC(C)O) 11.6 ns; (in CO) 10.3 ns; (in ClC(Cl)Cl) 11.6 ns; (in ClCCl) 13.2 ns. The same molecule returned a fluorescence lifetime (in c1ccccc1) of 12 ns.

In turn, `F[B-]1(F)OC(c2ccc(Br)cc2)=Cc2ccc3ccccc3[n+]21` showed a fluorescence lifetime (in ClC(Cl)Cl) of 1.21 ns.

For the molecule `COc1ccc(-c2oc3cccc4c5c(-c6ccc(OC)c(OC)c6)c(=N)oc6cccc(c2c34)c65)cc1OC`, the fluorescence lifetime (in ClC(Cl)Cl) came to 1.9 ns.

In the case of `CCC(CC)COC1=CC2=C3c4cc(OCC(CC)CC)c(-c5ccccc5)n4[B-](F)(F)[n+]4c3n(c3cc(C(C)(C)C)ccc34)[B-](F)(F)[N+]2=C1c1ccccc1`, the fluorescence lifetime (in C1CCOC1) is 0.97 ns and the fluorescence lifetime (in ClCCl) turned out to be 1.01 ns.

In the case of `C(=C\c1c2ccccc2cc2ccccc12)/c1cnc2ccccc2c1`, the fluorescence lifetime reads like this: (in CC1CCCCC1) 3.2 ns; (in CC#N) 3 ns.

In the case of `c1ccc2cc3cc(-c4cc(-c5nccs5)nc(-c5nccs5)c4)ccc3cc2c1`, the fluorescence lifetime is, setting by setting: (in CC#N) 6.92 ns; (in CCCCCC) 3.35 ns; (in CO) 4.04 ns; (in ClC(Cl)Cl) 4.22 ns.

Consider `COC(=O)C12N=N[C@](C(=O)OC)(C3C4C=CC(C4)C31)[C@@H]1C[C@H]12` (stereo not given in full), for which, where the note is “in CC#N”, the fluorescence lifetime was 131 ns.

Regarding `Cc1cc(C(F)(F)F)nc2c1ccc1nc(-c3ccc(Cl)cc3)cn12`, the fluorescence lifetime (in CC#N) stood at 8.1 ns; the fluorescence lifetime (in CCCCOC(C)=O) was determined as 6.83 ns; the fluorescence lifetime (in CCOC(C)=O) was found to be 6.72 ns; the fluorescence lifetime (in CO) worked out at 7.89 ns; the fluorescence lifetime (in c1ccccc1) stood at 6.26 ns.

`c1ccc2c(c1)ncc1ccc3cnc4ccccc4c3c12` registered a fluorescence lifetime (in CC#N) of 6.3 ns.

As for `CN(C)c1ccc(C#Cc2ccccc2)cc1`, the fluorescence lifetime is 0.38 ns (in C1CCCCC1); 0.589 ns (in C1CCOC1); 0.71 ns (in C1COCCO1); 0.414 ns (in CC1CCCO1); 1.25 ns (in CC#N); 1.83 ns (in CC(C)=O). The fluorescence lifetime is, setting by setting: (in CC(C)CC(C)(C)C) 0.35 ns; (in CCCCCCCCCCCCCCCC) 0.43 ns; (in CCCCCCCCCCCCCCCCCl) 0.66 ns; (in CCOC(C)=O) 1.16 ns; (in CCOCC) 0.411 ns; (in CN(C)C=O) 1.24 ns. For the same molecule, the fluorescence lifetime was found to be 0.757 ns (in CS(C)=O) and 0.58 ns (in Cc1ccccc1).

Take `Cc1ccc(-c2oc3cccc4c5c(-c6ccc(C)cc6)/c(=N/S(=O)(=O)C(F)(F)F)oc6cccc(c2c34)c65)cc1`: under “in ClC(Cl)Cl”, the fluorescence lifetime worked out at 5.4 ns.

For `CN(C)c1ccc(-c2ccc(C#N)s2)s1`, where the note is “in CCO”, the fluorescence lifetime came out at 2.72 ns.

`Cc1ccc2c(nc3c(=O)n(C)c(=O)nc-3n2C)c1C` showed a fluorescence lifetime (in CC#N) of 3.9 ns.

With `c1ccc([C@]23CC[C@H](CC2)N=N3)cc1`, the fluorescence lifetime (in CC#N) was found to be 2.5 ns.

For the molecule `COc1ccc(/C=C/C=C/C=C/c2ccc([N+](=O)[O-])cc2)cc1`, the fluorescence lifetime by setting is: (in C1CCOC1) 1.7 ns; (in C1COCCO1) 1.9 ns; (in CC1CCCCC1) 0.7 ns; (in Cc1ccccc1) 1.5 ns.

As to `c1ccc(-c2cc(-c3ccc4ccc5c(-c6ccnc(-c7ccccn7)c6)ccc6ccc3c4c65)ccn2)nc1`, the fluorescence lifetime is, setting by setting: (in C1CCOC1) 2 ns; (in CC#N) 2.2 ns; (in CCC#N) 2.2 ns; (in CCCC#N) 2.1 ns; (in CCCCCC) 2.6 ns; (in CCCO) 2.1 ns. Also, the fluorescence lifetime is, setting by setting: (in CCO) 2.1 ns; (in CO) 1.7 ns; (in Cc1ccccc1) 1.8 ns.

`O=P1(c2ccccc2)c2ccc(N3c4ccccc4Sc4ccccc43)cc2-c2cc(N3c4ccccc4Sc4ccccc43)ccc21` had a fluorescence lifetime under setting [1] of 26 ns.

The molecule `COc1ccc(/C=C/C2=[O+][B-](F)(F)OC(/C=C/c3ccc(OC)cc3)=C2c2ccc(OC)cc2)cc1` yielded a fluorescence lifetime (in ClCCl) of 1.31 ns.

Take `O=C(O)c1ccc(C(=O)O)c2cc3ccccc3cc12`: the fluorescence lifetime (in C1CCOC1) was found to be 19.2 ns and the fluorescence lifetime (in CN(C)C=O) amounted to 12.5 ns.

In turn, `c1ccc(Nc2nc(Nc3ccccc3)nc(Nc3cc4ccc5cccc6ccc(c3)c4c56)n2)cc1` gave a fluorescence lifetime (in CCCCCCC) of 102 ns.

Take `CN(C)CCCN1c2ccccc2Sc2ccc(C(F)(F)F)cc21`: the fluorescence lifetime runs as follows: (in CC#N) 2.66 ns; (in CO) 2.47 ns; (in O) 3.17 ns.

With `CN(C)c1ccc2c(c1)C(=O)NC2=O`, the fluorescence lifetime turned out to be 13.8 ns (in C1CCOC1), 14.9 ns (in C1COCCO1) and 3.9 ns (in CC#N).

Regarding `CC(C)(C)c1ccc2c(c1)[nH]c1c3[nH]c4cc(C(C)(C)C)ccc4c3c3nsnc3c21`, the fluorescence lifetime is, setting by setting: (in CN(C)C=O) 2.29 ns; (in Cc1ccccc1) 1.5 ns; (in ClCCl) 2.61 ns.

Take `O=C1c2ccc3c4c(Oc5ccccc5)cc5c6c(ccc(c7c(Oc8ccccc8)cc(c2c37)C(=O)N1c1ccc(O)cc1)c64)C(=O)N(c1ccc(O)cc1)C5=O`: the fluorescence lifetime (in C1CCOC1) came out at 7.52 ns, the fluorescence lifetime (in CN1CCCC1=O) was 1.62 ns and the fluorescence lifetime (in CN(C)C=O) stood at 0.05 ns.

Take `COc1ccc2nc3c(nc2c1)c(-c1ccccc1)nn3C`: the fluorescence lifetime reads like this: (in C1CCCCC1) 5.37 ns; (in C1CCOC1) 12.4 ns; (in CC#N) 16.7 ns.

For the molecule `O=C(O)CCCCCNC(=O)c1cccc2c(=O)c3ccccc3[nH]c12`, the fluorescence lifetime (in O) turned out to be 4.2 ns.

Molecule `CCN(CC)c1ccc2cc(C#N)/c(=N\C(=O)C(C)C)oc2c1` displayed a fluorescence lifetime (in ClCCl) of 3.1 ns.

Regarding `COc1ccc2c(C=C(C#N)C#N)cc3ccc4cc(C=C(C#N)C#N)c5ccc(OC)cc5c4c3c2c1`, under “in ClC(Cl)Cl”, the fluorescence lifetime is 1.5 ns.

`CN(C)c1ccc2c(-c3ccc(N)cc3C(=O)[O-])c3ccc(=[N+](C)C)cc-3oc2c1`: the fluorescence lifetime was determined as 3.19 ns (in CCO) and 2.23 ns (in O).

`CC(=O)[B-]1(C(C)=O)OC(C)=CC(c2ccc3ccccc3c2)=[O+]1` gave a fluorescence lifetime (in CC#N) of 13.6 ns and a fluorescence lifetime (in ClC(Cl)(Cl)Cl) of 1.6 ns.

With `COc1ccc(C2=Nc3cccc4[n+]3[B-](F)(O2)OC(c2ccc(OC)cc2)=N4)cc1`, the fluorescence lifetime (in ClCCl) turned out to be 1.8 ns.

`CC(C)(C)c1ccc(C(C)(C)C)c(N2C(=O)c3cccc4c(-c5ccc(-c6ccc(N(c7ccccc7)c7ccccc7)cc6)s5)ccc(c34)C2=O)c1` gave a fluorescence lifetime (in Cc1ccccc1) of 2.6 ns.

Take `FC(F)(F)c1ccc(C2=CC3=c4cc(-c5ccc(C(F)(F)F)cc5)c5nc(C(F)(F)C(F)(F)C(F)(F)F)nc6c(-c7ccc(C(F)(F)F)cc7)cc(c4c65)C4=CC(c5ccc(C(F)(F)F)cc5)=C5N=C(C(F)(F)C(F)(F)C(F)(F)F)N=C2C5C43)cc1` (stereo not given): the fluorescence lifetime (in C1CCOC1) turned out to be 2.8 ns.

Regarding `CC1(C)c2ccccc2N(c2ccc(-c3ccc4c(c3)C(=O)c3ccc(-c5ccc(N6c7ccccc7C(C)(C)c7ccccc76)cc5)cc3C4=O)cc2)c2ccccc21`, the fluorescence lifetime runs as follows: (in Cc1ccccc1) 4.2 ns; under setting [1], 41 ns.

In the case of `N#C/C(=C\c1ccc(-c2ccncc2)cc1)c1ccc(-c2ccncc2)cc1`, the fluorescence lifetime (in ClCCl) came to 0.1 ns.

Regarding `O=C(O)c1ccc2cc3cc(C(=O)O)ccc3cc2c1`, the fluorescence lifetime is, setting by setting: (in C1CCOC1) 12.3 ns; (in CN(C)C=O) 12.5 ns.

The molecule `CCN(CC)c1ccc2c(-c3ccccc3C(=O)O)c3c([o+]c2c1)/C(=C/C=C/c1ccc(N(C)C)cc1)CCC3` gave a fluorescence lifetime (in ClCCl) of 1.03 ns.

Where the note is “in Cc1ccccc1”, `CC(C)(C)c1ccc2c(c1)c1cc(C(C)(C)C)ccc1n2-c1cc(N2c3ccccc3C(c3ccccc3)(c3ccccc3)c3ccccc32)cc(-n2c3ccc(C(C)(C)C)cc3c3cc(C(C)(C)C)ccc32)c1C#N` yielded a fluorescence lifetime of 14.2 ns.

On to `Nc1ccccn1`, for which the fluorescence lifetime (in C1CCCCC1) worked out at 24.2 ns; the fluorescence lifetime (in CC#N) amounted to 5 ns; the fluorescence lifetime (in CCO) came to 5.1 ns; the fluorescence lifetime (in CCOCC) amounted to 10.8 ns; the fluorescence lifetime (in O) was 24.4 ns.

For the molecule `CCCCC(CC)COc1ccc2nc(-c3ccc(-c4ccc(OC)cc4)s3)sc2c1` (stereo not given), the fluorescence lifetime (in ClCCl) was determined as 1.52 ns.

`CC(C)(C)c1ccc2c(c1)c1cc(C(C)(C)C)ccc1n2-c1ccc2c(c1)C(=O)c1ccc(-n3c4ccc(C(C)(C)C)cc4c4cc(C(C)(C)C)ccc43)cc1C2=O`: the fluorescence lifetime reads like this: (in Cc1ccccc1) 7.5 ns; under setting [1], 10.4 ns.

Regarding `CN(C)CCCN1c2ccccc2CCc2ccc(Cl)cc21`, the fluorescence lifetime is, setting by setting: (in CC#N) 0.22 ns; (in CO) 0.19 ns; (in O) 0.18 ns.

The molecule `O=C([O-])COc1cc(NC(=O)c2ccc(-c3c4cc(Cl)c(=O)cc-4oc4cc(O)c(Cl)cc34)c(C(=O)[O-])c2)ccc1N(CC(=O)[O-])CC(=O)[O-]` showed a fluorescence lifetime (in O) of 1.21 ns.
